Results published in article PMC9694965, “Design of 4-Substituted Sulfonamidobenzoic Acid Derivatives Targeting Coxsackievirus B3” (Life, 2022).

Assays:
CVB3 Nancy [1] = test: Cytoprotection assay (MTT) in Vero cells infected with CVB3 Nancy; assay type: cell-based, Coxsackievirus B3; settings: for EC50: Enterovirus B, Vero cells infected with CVB3 Nancy at m.o.i. 0.001, 72 h, MTT, read-out: EC50 (50% cytoprotective concentration); for SI (selectivity index, ratio CC50/IC50): cytoprotection assay, CC50 72 h / EC50
Description: (§1) Vero cells were seeded in 96-well plates in 24 h before the assay. On the assay day, the cells were washed with saline and tested compounds in appropriate concentrations (300–3 μg/mL) in MEM without FBS were added to cells. No compounds were added to virus control wells. The plates were incubated for 1 h at 37 °C at 5% CO2. The cells were then infected with CVB3 Nancy (m.o.i range of 1–0.001) and incubated for 72 h at 37 °C at 5% CO2. No virus was added to the cytotoxicity control wells. Cell viability was then assessed using an MTT test with the following procedure. The cells were washed with saline, and a solution of 3-(4,5-dimethylthiazolyl-2) 2,5-diphenyltetrazolium bromide (ICN Biochemicals Inc., Aurora, OH, USA) ([…]) in MEM was added to the wells (100 µL per well). After 2 h of incubation at 37 °C in 5% CO2, the supernatant from wells was discarded, and the formazan residue was dissolved in DMSO (100 µL per well). The optical density of cells was then measured on a Multiskan multifunctional reader (Thermo Fisher Scientific, Shanghai, China) at a wavelength of 540 nm.
The cytoprotective activity of compounds was considered to be their ability to increase the values of OD compared to control wells (using only a virus, without drugs). Based on the results obtained, the values of IC50, i.e., the concentration of compounds that result in 50% cells protection were calculated for m.o.i. 0.001 using GraphPad Prism 6.01 software.

[2] = Cytotoxicity assay (MTT) in Vero cells; assay type: cell-based; settings: African green monkey; for CC50 at 24 h: 24 h incubation with the compound only; for CC50 at 72 h: 72 h incubation with the compound only
Description: as §1
(§2) The microtetrazolium test (MTT) was used to study the cytotoxicity of the compounds. The permissive cell line Vero was seeded in 96-well plates in Eagles minimal essential medium (MEM) supplemented with 10% FBS. After 24 h, the media were removed, and the wells were washed with saline. Compounds were dissolved in DMSO, and a series of two-fold dilutions of each compound in MEM without FBS were prepared and added to the cells in triplicates. […] The MTT was then performed as described above. Next, the optical density of cells was measured on a Multiskan multifunctional reader (Thermo Fisher Scientific, Shanghai, China) at a wavelength of 540 nm and plotted against the concentration of the compounds to generate the dose–response curve. The 50% cytotoxic dose (CC50) of each compound (i.e., the compound concentration that causes the death of 50% of cells in a culture, or decreases the optical density twice, as compared to the control wells) was calculated using a four-parameter logistic nonlinear regression model (GraphPad Prism 6.01).

Vero cells = test: Cytotoxicity assay (MTT) in Vero cells; assay type: cell-based; settings: incubation with the compound only
Description: as §1, §2

[3] = tested on: Coxsackievirus B3 (Nancy); test: Viral yield reduction assay in Vero cells; assay type: cell-based; settings: for IC50: Enterovirus B, B3 / CVB3, viral yield reduction, Vero cells, CVB3 Nancy at m.o.i. 0.01, 24 h, read-out: IC50 (50% virus-inhibiting concentration); for SI (selectivity index, ratio CC50/IC50): viral yield reduction assay, CC50 24 h / IC50
Description: Coxsackievirus B3 (CVB3, strain Nancy) was obtained from the collection of viruses of the Pasteur Institute (St. Petersburg, Russia). The permissive cell line Vero (ATCC #CCL-81) was used in the study. Infectious titers (in a 50%-tissue culture infection dose, TCID50) were determined in Vero cells for CVB3 by endpoint dilution assay using the following procedure. Permissive cells were seeded into 96-wells plates in Eagles minimal essential medium (MEM) supplemented with 5% fetal bovine serum (FBS). After 24 h, the medium was aspirated, the wells were washed with saline, fresh MEM without FBS was added to the wells and the cells were infected with serial tenfold dilutions of virus stocks (100 µL per well, 4 wells for each dilution). The plates were incubated at +37 °C in 5% CO2 and observed daily for cytopathic effect (CPE). After 72 h the viral titer was calculated in TCID50 using the method of Spearmen-Carber.
The antiviral activity of the compounds was evaluated using viral yield reduction assay. The respective permissive cell line Vero was seeded in MEM supplemented with 5% FBS in 24-well plates. When the cell confluence reached 100%, the compounds tested were dissolved in DMSO, and a series of three-fold dilutions of each compound in MEM without FBS was added to the cells, and incubated at 37 °C in 5% CO2. After 1 h, the media were discarded; equal volumes of fresh serial dilutions of each compound and viral suspension in MEM without FBS at […] were added. In control wells, only MEM without FBS was added. No compounds were added in the virus control wells. The plates were incubated at 4 °C for 1 h. The unbound virus was then washed away and, again, three-fold dilutions of each compound (the final concentration 50–0.6 µg/mL) in MEM without FBS were added to the wells. After 24 h of incubation at 37 °C in 5% CO2, the infectious titer of viral progeny (in TCID50) for each compound concentration, cell control, and virus control wells were determined in permissive cell lines by endpoint dilution assay as described above.
The titer of virus progeny was plotted against log concentration of the compounds tested to generate the dose–response curve. The 50% inhibition concentration (IC50) of each compound tested (i.e., the compound concentration that decreases the infectious viral progeny titer twice, as compared to the control wells) was calculated using a four-parameter logistic nonlinear regression model (GraphPad Prism 6.01).

CVB3 Nancy [4] = test: Thermostability assay (capsid binding, heat inactivation of virus); design: species or system Coxsackievirus B3; settings: pre-incubation 30 min at 37 °C, thermal gradient 37-55 °C for 2 min; for Effect on heat inactivation of CVB3 (capsid stabilization): versus virus control; for Temperature to which infectivity of CVB3 was preserved: concentrations greatly exceeding IC50
Description: CVB3 Nancy was pre-incubated with the compounds tested or an equal volume of MEM (virus control) for 30 min at +37 °C in sterile thin-walled 200 μL PCR-tubes (7 tubes per each treatment condition) in BioRad CFX PCR-machine. The thermal gradient of 37–55 °C for 2 min was then applied, followed by rapid cooling to 4 °C. Subsequently, the infectious virus load at each thermal condition for each compound tested was quantified by end-point dilution assay.

| Structure (SMILES) | EC50 (CVB3 Nancy [1]) [µM] | SI (selectivity index, ratio CC50/IC50) (CVB3 Nancy [1]) | CC50 at 24 h [2] [mM] | CC50 at 72 h [2] [µM] | CC50 (Vero cells) | IC50 [3] [µM] | SI (selectivity index, ratio CC50/IC50) [3] | Effect on heat inactivation of CVB3 (capsid stabilization) (CVB3 Nancy [4]) | Temperature to which infectivity of CVB3 was preserved (CVB3 Nancy [4]) [°C] | melting point |
| --- | --- | --- | --- | --- | --- | --- | --- | --- | --- | --- |
| O=C(O)c1ccc(NS(=O)(=O)c2ccc(N3C(=O)c4ccccc4C3=O)cc2)cc1 [Compound 2a, 4-(4-(1,3-Dioxoisoindolin-2-yl)phenylsulfonamido)benzoic acid, reference compound] | < 8.76 | >81.1 | > 1.18 | > 710 | exceeded the maximum concentration used in the assay | 5.54 ± 0.89 | >213 | heat inactivation of CVB3 changed to higher temperatures |  |  |
| O=C(O)c1ccc(NS(=O)(=O)c2ccc(NC(=O)c3ccccc3C(=O)O)cc2)cc1 [Compound 4, 2-((4-(N-(4-Carboxyphenyl)sulfamoyl)phenyl)carbamoyl)benzoic acid] | 13.2 ± 1.49 | >17.2 | > 1.14 | > 227 | exceeded the maximum concentration used in the assay | 4.29 ± 1.79 | >264 | heat inactivation of CVB3 changed to higher temperatures | 52.4 | 203 to 205 °C |
| NC(=O)C1CCN(S(=O)(=O)c2ccc(N3C(=O)c4ccccc4C3=O)cc2)CC1 [Compound 2h, 1-((4-(1,3-Dioxoisoindolin-2-yl)phenyl)sulfonyl)piperidine-4-carboxamide] | > 726 | >1 |  | > 726 | exceeded the maximum concentration used in the assay |  |  |  |  | 217 to 220 °C |
| O=C(O)c1ccc(NS(=O)(=O)c2ccc(N3C(=O)CCC3=O)cc2)cc1 [Compound 7a, 4-(4-(2,5-Dioxopyrrolidin-1-yl)phenylsulfonamido)benzoic acid] | < 9.88 | >34.8 | > 1.34 | 345 ± 32.2 |  | 4.22 ± 0.35 | >316 | heat inactivation of CVB3 changed to higher temperatures | 52.4 | 243 to 245 °C (dec.) |
| O=C(O)c1ccc(NS(=O)(=O)c2ccc(N3C(=O)C4C5C=CC(C5)C4C3=O)cc2)cc1 (stereo not shown) [Compound 7c, 4-(4-(1,3-Dioxo-3a,4,7,7a-tetrahydro-1H-4,7-methanoisoindol-2(3H)-yl)phenylsulfonamido)benzoic acid] | < 8.44 | >81.1 | > 1.14 | > 684 | exceeded the maximum concentration used in the assay | 19.6 ± 0.52 | >58 |  |  | 241 to 243 °C |
